The subject of this assay is PGY-sRNA-26. In words: In vivo delivery study of lipid-nucleic acid mixture (oral gavage, RT-qPCR of PGY-sRNA-26 in tissues). On the set-up: species or system mouse. Conditions: C57BL/6 mice, gavage, 100 μg lipid: 10 nmol PGY-sRNA-26, 12 hours. A digest of the protocol:
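C57BL/6 male mice (~6 weeks, 20-24 g), fasted 12 h, were gavaged with 10 nmol 3′-methylated PGY-sRNA-26 mixed with 100 μg lipid (heated 90° C. 15 min), versus saline or free sRNA (n=4 each). After 12 h, blood and tissues were Trizol-extracted; sRNA quantified by stem-loop RT-qPCR relative to U6.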
Background: In qPCR the cycle at which signal appears reflects the starting amount.

Regarding `CC(C)CCC[C@@H](C)[C@H]1CC[C@H]2[C@@H]3CC[C@H]4CCCC[C@]4(C)[C@H]3CC[C@]12C` [Lipid 653, 5α-cholestane (5R,8R,9S,10S,13R,14S,17R)-10,13-dimethyl-17-[(2R)-6-methylheptan-2-yl]-2,3,4,5,6,7,8,9,11,12,14,15,16,17-tetradecahydro-1H-cyclopenta[a]phenanthrene], under “all tissues and blood tested”, the “delivery efficacy over each tissue and blood tested (broad-spectrum delivery)” value is “exhibited the best delivery efficacy”. For the same compound, the “oral delivery of single-stranded sRNA nucleic acids into mouse blood” value (blood) was “can effectively orally deliver”. Moreover, the “oral delivery of single-stranded sRNA nucleic acids into mouse brain tissue” value (brain) is given as “can effectively orally deliver”. The “oral delivery of single-stranded sRNA nucleic acids into mouse femur” value (femur) is recorded as “can effectively orally deliver”. The “oral delivery of single-stranded sRNA nucleic acids into mouse heart tissue” value (heart) was “can effectively orally deliver”. The “oral delivery of single-stranded sRNA nucleic acids into mouse intestinal tissue” value (intestine) is reported as “can effectively orally deliver”. Further, for the setting “kidney”, the “oral delivery of single-stranded sRNA nucleic acids into mouse kidney tissue” value is given as “can effectively orally deliver”. Moreover, the “oral delivery of single-stranded sRNA nucleic acids into mouse liver tissue” value (liver) is recorded as “can effectively orally deliver”. For the same compound, for the setting “lung”, the “oral delivery of single-stranded sRNA nucleic acids into mouse lung tissue” value is “can effectively orally deliver”. Also, the “oral delivery of single-stranded sRNA nucleic acids into mouse spleen tissue” value (spleen) is given as “can effectively orally deliver”. Moreover, the “oral delivery of single-stranded sRNA nucleic acids into mouse stomach tissue” value (stomach) was “can effectively orally deliver”.

These data come from patent publication US20240293551A1, “USE OF ST-TYPE LIPID COMPOUNDS IN PREPARATION OF NUCLEIC ACID DELIVERY REAGENT AND RELATED PRODUCT” (INSTITUTE OF BASIC MEDICAL SCIENCES CHINESE ACADEMY OF …, priority 2021, published 2024).
